The Ki is a measure of affinity in units of concentration, obtained from inhibition or displacement. A lower Ki goes with tighter binding. A word on the inhibition: it is the percentage by which the read-out fell short of the control.

Structures are written as SMILES. In brackets after ≈: the same amount, converted by molar mass.

The source of these data is ChEMBL document CHEMBL3098065, “Discovery of Pyridyl Bis(oxy)dibenzimidamide Derivatives as Selective Matriptase Inhibitors” (ACS Med Chem Lett, 2013).

Data set [1] has as its target Urokinase-type plasminogen activator (Homo sapiens, UniProt P00749). In words: Inhibition of uPA (unknown origin) using L-PyroGlu-Gly-Arg-pNA.HCl as substrate.
Data set [2] addresses T1, Suppressor of tumorigenicity 14 protein (Homo sapiens, UniProt Q9Y5Y6).
T1 sequence (Q9Y5Y6 whole entry): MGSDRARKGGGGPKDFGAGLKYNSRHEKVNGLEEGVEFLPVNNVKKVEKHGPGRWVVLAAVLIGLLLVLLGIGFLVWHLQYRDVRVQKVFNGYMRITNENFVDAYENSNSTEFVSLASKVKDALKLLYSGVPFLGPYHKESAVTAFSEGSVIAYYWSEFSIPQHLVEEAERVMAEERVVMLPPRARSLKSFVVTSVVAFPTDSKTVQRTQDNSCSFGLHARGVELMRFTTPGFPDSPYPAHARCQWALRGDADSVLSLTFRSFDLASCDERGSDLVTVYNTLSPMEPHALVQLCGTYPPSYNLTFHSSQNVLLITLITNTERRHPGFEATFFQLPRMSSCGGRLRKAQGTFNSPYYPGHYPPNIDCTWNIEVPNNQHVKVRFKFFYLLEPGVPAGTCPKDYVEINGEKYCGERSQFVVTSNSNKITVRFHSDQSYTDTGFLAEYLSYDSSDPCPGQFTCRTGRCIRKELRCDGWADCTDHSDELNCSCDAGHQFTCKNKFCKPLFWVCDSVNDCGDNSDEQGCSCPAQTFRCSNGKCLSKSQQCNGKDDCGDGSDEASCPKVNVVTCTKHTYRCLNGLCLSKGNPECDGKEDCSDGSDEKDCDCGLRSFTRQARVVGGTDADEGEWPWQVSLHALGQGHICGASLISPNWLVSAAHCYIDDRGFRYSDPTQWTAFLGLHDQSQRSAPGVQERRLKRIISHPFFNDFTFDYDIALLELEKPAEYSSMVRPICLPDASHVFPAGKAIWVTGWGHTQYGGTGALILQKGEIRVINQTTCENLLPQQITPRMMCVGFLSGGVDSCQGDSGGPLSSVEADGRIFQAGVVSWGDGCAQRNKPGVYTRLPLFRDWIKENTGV
Kind of data set: Inhibition of matriptase-SP1 (615 to 855) (unknown origin) expressed in Escherichia coli BL21(DE3) using Boc-Gln-Ala-Arg-7-amido-4-methyl coumarin hydrobromide as substrate by fluorescence assay.

A short description of data set [3]: Metabolic stability in mouse liver microsomes assessed as compound remaining at 1 uM after 40 mins by LC-MS/MS analysis. Format: ADME, Microsome. As to conditions: read-out: Stability. Background: Liver microsomes are a subcellular fraction often used to study metabolism.
Data set [4] is described as follows: Metabolic stability in mouse liver microsomes assessed as compound remaining at 1 uM after 20 mins by LC-MS/MS analysis. Format: ADME, Microsome. As to conditions: read-out: Stability.
The nature of data set [5]: Kinetic aqueous solubility of the compound at pH 7.4 after 16 hrs by shake flask method. Format: physicochemical. As to conditions: read-out: Kinetic_solubility.
Data set [6] has as its system DU-145. In words: Antiinvasive activity against human DU145 cells at 10 uM incubated overnight followed by fibronectin addition measured after 48 hrs by calcein AM assay relative to control. Format: functional. As to conditions: DU-145, 48 h.
The subject of data set [7] is DU-145. Kind of data set: Antimigratory activity against human DU145 cells at 10 uM incubated overnight followed by fibronectin addition measured after 24 hrs by calcein AM assay relative to control. The class given is functional. As to conditions: DU-145, 24 h.
Data set [8] relates to PC-3. Kind of data set: Antiinvasive activity against human PC3 cells at 10 uM incubated overnight followed by fibronectin and HGF addition measured after 48 hrs by calcein AM assay relative to control. Format: functional. As to conditions: PC-3, 48 h.
The subject of data set [9] is PC-3. In words: Antimigratory activity against human PC3 cells at 10 uM incubated overnight followed by fibronectin and HGF addition measured after 24 hrs by calcein AM assay relative to control. The class given is functional. As to conditions: PC-3, 24 h.
Data set [10] concerns DU-145. Kind of data set: Cytotoxicity against human DU145 cells at 10 uM after 72 hrs by calcein AM assay relative to control. The class given is functional.
The subject of data set [11] is PC-3. In words: Cytotoxicity against human PC3 cells at 10 uM after 72 hrs by calcein AM assay relative to control. Format: functional.
In data set [12] the target is Prothrombin (Homo sapiens, UniProt P00734). In words: Inhibition of thrombin (unknown origin) by fluorescence assay.
The target of data set [13] is Trypsin (Homo sapiens, UniProt P07477+P07478+P35030). Kind of data set: Inhibition of trypsin (unknown origin) by fluorescence assay. Format: protein assay.
Data set [14] concerns the target Coagulation factor X (Homo sapiens, UniProt P00742). Kind of data set: Inhibition of factor 10a (unknown origin) using CH3OCO-D-CHA-Gly-Arg-pNA.AcoH as substrate.

Chain of Coagulation factor X (P00742 41-179 limits assumed): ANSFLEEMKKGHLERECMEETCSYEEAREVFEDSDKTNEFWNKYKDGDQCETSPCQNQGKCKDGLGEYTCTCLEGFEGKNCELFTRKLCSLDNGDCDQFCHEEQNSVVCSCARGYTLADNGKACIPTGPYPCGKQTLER
Chain of Coagulation factor X (P00742 235-488 limits assumed): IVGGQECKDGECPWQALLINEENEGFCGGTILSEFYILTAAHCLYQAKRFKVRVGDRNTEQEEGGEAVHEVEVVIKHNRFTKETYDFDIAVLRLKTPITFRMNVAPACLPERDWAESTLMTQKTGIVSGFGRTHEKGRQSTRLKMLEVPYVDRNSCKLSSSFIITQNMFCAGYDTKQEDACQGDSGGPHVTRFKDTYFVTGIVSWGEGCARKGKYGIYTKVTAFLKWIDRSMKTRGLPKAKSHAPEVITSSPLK

`N=C(N)c1ccc(Oc2ccc(NS(=O)(=O)c3cc(F)cc(F)c3)c(Oc3ccc(C(=N)N)cc3)n2)cc1`: the inhibition constant Ki is greater than 10 µM in [1] and 1.2 µM in data set [2].

Regarding `N=C(N)c1ccc(Oc2ccc(NS(=O)(=O)c3cccc4cccnc34)c(Oc3ccc(C(=N)N)cc3)n2)cc1`, the inhibitory constant (Ki) is greater than 10 µM in data set [1] and 0.2 µM in data set [2].

On to `N=C(N)c1ccc(Oc2ccc(NS(=O)(=O)c3ccc4ccccc4c3)c(Oc3ccc(C(=N)N)cc3)n2)cc1`, for which the remaining at 40 min, 1 µM in data set [3] amounted to 73.2%. Moreover, the remaining at 20 min, 1 µM in data set [4] amounted to 76.4%. In data set [5], the solubility kinetic at 16 h is 191 µM (≈ 106 µg/mL). Also, the inhibition at 10 µM is 47% in data set [6], 59% in [7], 42% in data set [8] and 39% in data set [9]. Moreover, the Activity in data set [10] and in data set [11] was 20% throughout. Also, the Ki in data set [12] was 5.8 µM; in [13] it was 1.3 µM; in [14] it was 0.3 µM; in [1], greater than 10 µM; in data set [2], 0.04 µM.

Consider `N=C(N)c1ccccc1` [BENZAMIDINE], for which, in data set [2], the Ki turned out to be 400 µM.

`N=C(N)c1ccc(Oc2ccc(C(=O)NCCCN)c(Oc3ccc(C(=N)N)cc3)n2)cc1`: the Ki in data set [12] was 2.1 µM; in data set [13] it was 0.3 µM; in data set [14], 0.3 µM; in [1], greater than 10 µM; in [2], 0.4 µM.

Take `N=C(N)c1ccc(Oc2cc(C(=O)N[C@H]3CC[C@H](N)CC3)cc(Oc3ccc(C(=N)N)cc3)n2)cc1`: in data set [3], the remaining at 40 min, 1 µM worked out at 95.6%. Besides, in data set [4], the remaining at 20 min, 1 µM was found to be 100%. Also, the solubility kinetic at 16 h in data set [5] turned out to be 196 µM (≈ 95.6 µg/mL). The inhibition at 10 µM in [6] is 69%; in [7], 65%; in data set [8], 42%; in data set [9], 53%. Further, the results for the Activity in data set [10] and in [11] were 0% and 1%, respectively. Moreover, the Ki in [12] is 2.5 µM; in [13] it was 2.4 µM; in data set [14], 0.4 µM; in data set [1], greater than 10 µM; in [2] it was 0.04 µM.

With `N=C(N)c1ccc(Oc2ccc(NS(=O)(=O)c3ccc(F)cc3)c(Oc3ccc(C(=N)N)cc3)n2)cc1`, the remaining at 40 min, 1 µM in data set [3] turned out to be 86.5%. Moreover, the remaining at 20 min, 1 µM in [4] was 89%. Moreover, the solubility kinetic at 16 h in data set [5] was found to be 194 µM (≈ 101 µg/mL). For the same molecule, the inhibition at 10 µM in [6] is 61%; in data set [7], 69%; in [8], 60%; in data set [9], 65%. The Activity in data set [10] and in [11] was 0% throughout. Besides, the Ki in data set [12] was 4.1 µM; in data set [13], 1.4 µM; in [14] it was 0.3 µM; in data set [1] it was greater than 10 µM; in data set [2], 0.2 µM.

For `N=C(N)c1ccc(Oc2ccc(C(=O)NC3CCN(C(=O)CCN)CC3)c(Oc3ccc(C(=N)N)cc3)n2)cc1`, the inhibitory constant (Ki) in [12] was 3.6 µM; in data set [14], 2.3 µM; in [1], greater than 10 µM; in [2], 0.6 µM.

Consider `N=C(N)c1ccc(Oc2cc(C(=O)N3CCC(CCN)CC3)cc(Oc3ccc(C(=N)N)cc3)n2)cc1`, for which the inhibition constant (Ki) in [12] was greater than 2.5 µM; in [13], 2.2 µM; in [14], 0.2 µM; in [1], greater than 10 µM; in data set [2] it was 0.1 µM.

`N=C(N)c1ccc(Oc2cc(C(=O)NC3CCN(CCCN)CC3)cc(Oc3ccc(C(=N)N)cc3)n2)cc1`: the Ki in data set [12] is 2.9 µM; in [14], 0.1 µM; in data set [1], greater than 10 µM; in data set [2], 0.04 µM.

Turning to `N=C(N)c1ccc(Oc2cccc(Oc3ccc(C(=N)N)cc3)n2)cc1`, the Ki was 0.6 µM in data set [12], 2.8 µM in data set [13] and 9.6 µM in data set [2].

In the case of `N=C(N)c1ccc(Oc2ccc(C(=O)N3CCC(CCN)CC3)c(Oc3ccc(C(=N)N)cc3)n2)cc1`, the Ki in [12] was greater than 2.5 µM; in data set [13], 3.6 µM; in data set [14], 1.5 µM; in data set [1] it was greater than 10 µM; in data set [2] it was 0.2 µM.

Turning to `N=C(N)c1ccc(Oc2ccc(N)c(Oc3ccc(C(=N)N)cc3)n2)cc1`, the inhibition constant Ki in data set [12] is 4.4 µM; in data set [13], 5.5 µM; in data set [14], 1.2 µM; in data set [1], greater than 10 µM; in data set [2], 2.9 µM.

As to `N=C(N)c1ccc(Oc2ccc(C(=O)N[C@H]3CC[C@H](N)CC3)c(Oc3ccc(C(=N)N)cc3)n2)cc1`, the inhibition constant Ki in data set [12] was 3.4 µM; in [13] it was 2 µM; in [14], 0.6 µM; in data set [1], greater than 10 µM; in data set [2] it was 0.5 µM.
